Data as given in ChEMBL document CHEMBL1201862, “PubChem BioAssay data set” (2004).
The source made the active and inactive calls.

What was measured:
[1] = molecular target: 5'-AMP-activated protein kinase catalytic subunit alpha-1 (Homo sapiens, UniProt Q13131); assay type: functional
[2] = molecular target: Serine/threonine-protein kinase PLK4 (Homo sapiens, UniProt O00444); assay type: functional;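 further: PLK4 measured as one member of a kinome-wide kinase profiling panel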
[3] = molecular target: Tyrosine-protein kinase Lck (Homo sapiens, UniProt P06239); assay type: functional;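 further: lck was assayed as one member of a kinase panel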
Chain of Tyrosine-protein kinase Lck (P06239 whole entry): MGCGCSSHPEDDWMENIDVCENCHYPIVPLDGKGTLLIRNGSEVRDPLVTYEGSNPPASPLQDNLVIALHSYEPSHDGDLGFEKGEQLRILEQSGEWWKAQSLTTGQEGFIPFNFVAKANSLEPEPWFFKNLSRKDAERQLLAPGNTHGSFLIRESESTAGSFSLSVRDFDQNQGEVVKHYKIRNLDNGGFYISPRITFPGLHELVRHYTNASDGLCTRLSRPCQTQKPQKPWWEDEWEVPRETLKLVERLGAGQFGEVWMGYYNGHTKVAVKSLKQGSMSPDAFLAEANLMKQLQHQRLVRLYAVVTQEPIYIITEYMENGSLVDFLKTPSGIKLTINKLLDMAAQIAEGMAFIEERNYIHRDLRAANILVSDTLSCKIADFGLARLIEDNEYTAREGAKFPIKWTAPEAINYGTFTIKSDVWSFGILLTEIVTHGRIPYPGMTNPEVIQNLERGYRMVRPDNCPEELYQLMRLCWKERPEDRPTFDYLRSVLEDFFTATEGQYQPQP

[4] = molecular target: Serine/threonine-protein kinase Chk2 (Homo sapiens, UniProt O96017); assay type: functional;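 further: CHEK2 entry within a kinome-wide screening panel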
[5] = molecular target: SRSF protein kinase 1 (Homo sapiens, UniProt Q96SB4); assay type: functional;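 further: measured as one member of a kinome-wide kinase profiling panel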
[6] = molecular target: Cell division cycle 7-related protein kinase (Homo sapiens, UniProt O00311); assay type: functional;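 further: value obtained from a kinome-wide kinase panel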
[7] = molecular target: Fibroblast growth factor receptor 1 (Homo sapiens, UniProt P11362); assay type: functional
[8] = molecular target: Tyrosine-protein kinase JAK3 (Homo sapiens, UniProt P52333); assay type: functional
[9] = molecular target: Tyrosine-protein kinase ITK/TSK (Homo sapiens, UniProt Q08881); assay type: functional;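 further: affinity for ITK measured as one member of a broad kinase panel profiling binding across the kinome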
[10] = molecular target: Serine/threonine-protein kinase N2 (Homo sapiens, UniProt Q16513); assay type: functional
[11] = molecular target: Proto-oncogene tyrosine-protein kinase ROS (Homo sapiens, UniProt P08922); assay type: functional;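 further: ROS1 tested as one member of a kinome-wide kinase panel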
[12] = molecular target: Tyrosine-protein kinase Blk (Homo sapiens, UniProt P51451); assay type: functional;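 further: obtained as one member of a kinome-wide kinase assay panel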
[13] = molecular target: Hepatocyte growth factor receptor (Homo sapiens, UniProt P08581); assay type: functional;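 further: kinase panel profiling across the kinome, with MET as the panel member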
Chain of Hepatocyte growth factor receptor (P08581 whole entry): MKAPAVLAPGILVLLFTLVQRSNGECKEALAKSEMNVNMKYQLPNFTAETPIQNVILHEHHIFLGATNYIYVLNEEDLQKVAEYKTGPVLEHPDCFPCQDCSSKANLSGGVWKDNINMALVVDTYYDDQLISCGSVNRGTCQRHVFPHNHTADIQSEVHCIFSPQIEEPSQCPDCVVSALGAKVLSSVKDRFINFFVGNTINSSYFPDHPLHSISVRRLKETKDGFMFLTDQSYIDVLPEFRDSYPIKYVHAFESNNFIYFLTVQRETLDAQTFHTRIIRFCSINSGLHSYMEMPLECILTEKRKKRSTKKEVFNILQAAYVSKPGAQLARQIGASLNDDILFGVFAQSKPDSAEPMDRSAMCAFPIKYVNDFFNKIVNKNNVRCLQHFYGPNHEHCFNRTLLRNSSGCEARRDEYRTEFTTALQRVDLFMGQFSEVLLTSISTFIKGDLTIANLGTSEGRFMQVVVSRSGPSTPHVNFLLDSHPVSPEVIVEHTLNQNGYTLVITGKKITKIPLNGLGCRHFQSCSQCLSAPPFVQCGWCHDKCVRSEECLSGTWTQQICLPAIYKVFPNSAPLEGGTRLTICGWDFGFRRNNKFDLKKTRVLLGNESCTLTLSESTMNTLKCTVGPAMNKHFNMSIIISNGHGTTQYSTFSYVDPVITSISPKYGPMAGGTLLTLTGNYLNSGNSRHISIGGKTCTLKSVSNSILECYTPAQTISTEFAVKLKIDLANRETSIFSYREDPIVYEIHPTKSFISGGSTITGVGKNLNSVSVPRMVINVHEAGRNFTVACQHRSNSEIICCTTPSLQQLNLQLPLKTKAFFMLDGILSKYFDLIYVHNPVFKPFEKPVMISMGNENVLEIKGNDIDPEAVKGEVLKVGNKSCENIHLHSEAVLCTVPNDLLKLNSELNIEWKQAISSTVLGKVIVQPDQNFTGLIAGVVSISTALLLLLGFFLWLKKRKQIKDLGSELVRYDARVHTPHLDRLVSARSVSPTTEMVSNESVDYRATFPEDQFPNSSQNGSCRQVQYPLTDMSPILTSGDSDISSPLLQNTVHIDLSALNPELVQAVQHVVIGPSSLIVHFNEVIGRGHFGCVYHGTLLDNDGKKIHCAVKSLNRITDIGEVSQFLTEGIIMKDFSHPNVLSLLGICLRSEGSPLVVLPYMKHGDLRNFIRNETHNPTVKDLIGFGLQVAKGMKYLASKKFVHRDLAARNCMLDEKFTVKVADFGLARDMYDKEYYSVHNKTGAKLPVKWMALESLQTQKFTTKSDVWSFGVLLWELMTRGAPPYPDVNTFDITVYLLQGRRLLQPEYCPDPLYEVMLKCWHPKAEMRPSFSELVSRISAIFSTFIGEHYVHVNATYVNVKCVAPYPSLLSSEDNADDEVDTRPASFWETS

[14] = molecular target: Receptor-type tyrosine-protein kinase FLT3 (Homo sapiens, UniProt P36888); assay type: functional;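 further: FLT3 was tested as one member of a kinome-wide kinase panel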
[15] = molecular target: Serine/threonine-protein kinase SIK2 (Homo sapiens, UniProt Q9H0K1); experiment: Navigating the Kinome. Panel member name: SIK2; assay type: functional
[16] = molecular target: Vascular endothelial growth factor receptor 2 (Homo sapiens, UniProt P35968); assay type: functional
[17] = molecular target: Misshapen-like kinase 1 (Homo sapiens, UniProt Q8N4C8); assay type: functional;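 further: kinome panel screen with MINK as the panel member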
[18] = molecular target: Serine/threonine-protein kinase Nek4 (Homo sapiens, UniProt P51957); assay type: functional
[19] = molecular target: cAMP-dependent protein kinase catalytic subunit PRKX (Homo sapiens, UniProt P51817); assay type: functional
[20] = molecular target: Interleukin-1 receptor-associated kinase 1 (Homo sapiens, UniProt P51617); assay type: functional;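 further: IRAK1 tested as one member of a kinome panel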
[21] = molecular target: Platelet-derived growth factor receptor alpha (Homo sapiens, UniProt P16234); experiment: Navigating the Kinome. Panel member name: PDGFRA; assay type: functional
[22] = molecular target: RAC-alpha serine/threonine-protein kinase (Homo sapiens, UniProt P31749); assay type: functional;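 further: AKT1 affinity measured as one member of a kinome-wide kinase profiling panel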
Chain of RAC-alpha serine/threonine-protein kinase (P31749 whole entry): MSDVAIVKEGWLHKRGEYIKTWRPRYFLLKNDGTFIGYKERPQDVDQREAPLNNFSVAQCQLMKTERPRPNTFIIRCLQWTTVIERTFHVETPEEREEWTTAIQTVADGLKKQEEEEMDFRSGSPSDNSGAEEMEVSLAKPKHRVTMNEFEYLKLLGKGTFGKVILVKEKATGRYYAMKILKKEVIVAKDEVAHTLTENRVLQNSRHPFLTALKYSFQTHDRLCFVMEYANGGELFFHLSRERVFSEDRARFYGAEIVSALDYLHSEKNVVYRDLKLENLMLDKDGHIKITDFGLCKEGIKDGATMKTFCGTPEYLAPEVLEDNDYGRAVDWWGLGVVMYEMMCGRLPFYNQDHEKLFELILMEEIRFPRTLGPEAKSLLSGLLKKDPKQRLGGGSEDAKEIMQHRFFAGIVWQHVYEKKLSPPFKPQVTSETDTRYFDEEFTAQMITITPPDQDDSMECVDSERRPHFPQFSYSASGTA

[23] = molecular target: Calcium/calmodulin-dependent protein kinase type 1 (Homo sapiens, UniProt Q14012); assay type: functional
[24] = molecular target: Serine/threonine-protein kinase pim-2 (Homo sapiens, UniProt Q9P1W9); assay type: functional;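 further: value comes from a broad kinase panel profiling study in which PIM2 was one of the panel members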
[25] = molecular target: Serine/threonine-protein kinase Nek2 (Homo sapiens, UniProt P51955); assay type: functional
Chain of Serine/threonine-protein kinase Nek2 (P51955 whole entry): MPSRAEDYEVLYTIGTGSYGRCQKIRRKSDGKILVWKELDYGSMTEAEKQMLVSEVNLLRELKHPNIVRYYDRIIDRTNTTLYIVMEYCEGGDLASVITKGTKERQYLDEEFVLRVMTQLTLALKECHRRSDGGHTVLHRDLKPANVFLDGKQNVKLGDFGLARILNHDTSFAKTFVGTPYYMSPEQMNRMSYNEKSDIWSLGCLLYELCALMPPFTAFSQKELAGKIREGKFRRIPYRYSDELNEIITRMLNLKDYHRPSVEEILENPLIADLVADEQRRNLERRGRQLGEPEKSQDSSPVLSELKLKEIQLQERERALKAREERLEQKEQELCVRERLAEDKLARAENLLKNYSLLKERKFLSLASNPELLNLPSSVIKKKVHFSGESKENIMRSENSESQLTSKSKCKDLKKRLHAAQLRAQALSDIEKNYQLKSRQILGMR

[26] = molecular target: Vascular endothelial growth factor receptor 1 (Homo sapiens, UniProt P17948); assay type: functional;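 further: measured within a kinome-wide profiling panel, FLT1 as the panel member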
[27] = molecular target: Cyclin-dependent kinase 9 (Homo sapiens, UniProt P50750); assay type: functional;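 further: value from the CDK9 entry of a kinome-spanning kinase panel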
Chain of Cyclin-dependent kinase 9 (P50750 whole entry): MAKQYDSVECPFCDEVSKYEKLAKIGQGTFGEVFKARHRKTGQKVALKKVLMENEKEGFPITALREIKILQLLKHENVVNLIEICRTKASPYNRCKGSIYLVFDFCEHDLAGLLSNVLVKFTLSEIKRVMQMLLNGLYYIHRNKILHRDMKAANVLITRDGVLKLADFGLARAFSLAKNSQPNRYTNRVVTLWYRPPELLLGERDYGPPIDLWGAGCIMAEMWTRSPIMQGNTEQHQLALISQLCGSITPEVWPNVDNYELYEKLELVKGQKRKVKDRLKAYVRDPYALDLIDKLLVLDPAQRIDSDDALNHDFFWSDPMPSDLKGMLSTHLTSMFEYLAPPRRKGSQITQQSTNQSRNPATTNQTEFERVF

[28] = molecular target: BDNF/NT-3 growth factors receptor (Homo sapiens, UniProt Q16620); assay type: functional;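 further: NTRK2 measured as one member of a broad kinome-wide kinase profiling panel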
[29] = molecular target: Mitogen-activated protein kinase 10 (Homo sapiens, UniProt P53779); experiment: Navigating the Kinome. Panel member name: MAPK10; assay type: functional
[30] = molecular target: Mitogen-activated protein kinase kinase kinase 10 (Homo sapiens, UniProt Q02779); experiment: Navigating the Kinome. Panel member name: MAP3K10; assay type: functional
Chain of Mitogen-activated protein kinase kinase kinase 10 (Q02779 whole entry): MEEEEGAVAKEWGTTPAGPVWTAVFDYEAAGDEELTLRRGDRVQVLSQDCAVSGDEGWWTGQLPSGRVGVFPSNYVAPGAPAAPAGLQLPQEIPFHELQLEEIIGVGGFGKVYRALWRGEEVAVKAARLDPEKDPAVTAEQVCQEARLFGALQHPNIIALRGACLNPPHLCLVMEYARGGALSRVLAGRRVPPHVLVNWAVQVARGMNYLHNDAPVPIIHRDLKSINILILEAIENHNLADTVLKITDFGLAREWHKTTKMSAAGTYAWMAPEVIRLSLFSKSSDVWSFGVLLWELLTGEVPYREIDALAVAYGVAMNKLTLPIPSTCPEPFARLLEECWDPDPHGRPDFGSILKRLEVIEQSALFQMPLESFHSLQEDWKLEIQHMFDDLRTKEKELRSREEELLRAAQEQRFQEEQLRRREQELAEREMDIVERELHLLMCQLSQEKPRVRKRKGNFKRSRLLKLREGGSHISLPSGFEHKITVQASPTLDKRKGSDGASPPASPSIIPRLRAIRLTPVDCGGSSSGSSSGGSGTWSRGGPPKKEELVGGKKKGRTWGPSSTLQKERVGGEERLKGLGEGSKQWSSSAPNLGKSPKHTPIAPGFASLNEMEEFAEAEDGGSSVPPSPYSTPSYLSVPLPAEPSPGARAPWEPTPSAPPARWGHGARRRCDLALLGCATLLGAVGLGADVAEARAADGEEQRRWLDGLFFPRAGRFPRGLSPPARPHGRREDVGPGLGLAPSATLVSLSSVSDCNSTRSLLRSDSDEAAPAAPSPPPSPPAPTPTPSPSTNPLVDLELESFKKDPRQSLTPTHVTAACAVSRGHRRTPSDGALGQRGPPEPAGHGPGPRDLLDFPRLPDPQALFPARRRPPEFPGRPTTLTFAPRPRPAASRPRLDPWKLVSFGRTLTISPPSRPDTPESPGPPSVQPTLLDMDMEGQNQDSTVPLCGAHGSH

[31] = molecular target: Calcium/calmodulin-dependent protein kinase type II subunit alpha (Homo sapiens, UniProt Q9UQM7); experiment: Navigating the Kinome. Panel member name: CAMK2A; assay type: functional
[32] = molecular target: Mitogen-activated protein kinase 14 (Homo sapiens, UniProt Q16539); assay type: functional;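 further: part of a kinome-wide panel, MAPK14 entry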
[33] = molecular target: Nonstructural protein 1 (Influenza A virus, UniProt Q194T2); assay type: functional, Influenza A virus (A/California/07/2009(H1N1))
Chain of Nonstructural protein 1 (Q194T2 whole entry): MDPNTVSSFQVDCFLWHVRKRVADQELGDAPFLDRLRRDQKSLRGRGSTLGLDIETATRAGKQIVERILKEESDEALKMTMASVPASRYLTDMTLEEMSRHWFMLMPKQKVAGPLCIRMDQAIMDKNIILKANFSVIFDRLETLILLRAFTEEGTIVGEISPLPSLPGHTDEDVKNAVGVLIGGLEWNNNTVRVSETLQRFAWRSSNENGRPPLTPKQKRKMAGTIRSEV

[34] = molecular target: T1, Protein RecA (Mycobacterium tuberculosis, UniProt P9WHJ3); experiment: Fluorescence Cell-Free Homogeneous Dose Retest to Identify Inhibitors of RecA-Intein Splicing Activity. [Related pubchem assays (depositor defined):AID2097, AID2223, AID489010, AID492950]; assay type: functional
T1 sequence (P9WHJ3 whole entry): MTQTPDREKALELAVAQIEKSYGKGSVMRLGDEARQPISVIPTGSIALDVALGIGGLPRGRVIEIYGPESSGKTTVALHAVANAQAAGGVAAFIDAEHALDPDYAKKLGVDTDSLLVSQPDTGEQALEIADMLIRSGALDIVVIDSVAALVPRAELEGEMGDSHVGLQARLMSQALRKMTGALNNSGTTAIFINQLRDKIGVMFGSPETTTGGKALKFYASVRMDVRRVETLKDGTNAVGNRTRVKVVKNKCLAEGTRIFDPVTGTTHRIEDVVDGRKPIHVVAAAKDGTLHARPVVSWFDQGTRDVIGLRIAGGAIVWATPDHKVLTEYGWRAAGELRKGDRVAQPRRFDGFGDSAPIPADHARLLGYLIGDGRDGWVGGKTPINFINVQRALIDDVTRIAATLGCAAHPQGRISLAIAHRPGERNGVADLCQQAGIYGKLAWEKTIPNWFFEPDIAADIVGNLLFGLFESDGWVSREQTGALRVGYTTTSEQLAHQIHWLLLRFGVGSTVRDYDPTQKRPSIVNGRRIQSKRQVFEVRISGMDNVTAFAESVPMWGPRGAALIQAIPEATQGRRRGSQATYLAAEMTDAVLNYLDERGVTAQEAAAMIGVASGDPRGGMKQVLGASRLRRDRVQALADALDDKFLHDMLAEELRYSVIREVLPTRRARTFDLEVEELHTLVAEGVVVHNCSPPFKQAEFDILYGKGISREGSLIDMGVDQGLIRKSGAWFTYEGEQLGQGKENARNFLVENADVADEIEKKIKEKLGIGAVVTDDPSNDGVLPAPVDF

Chain of 5'-AMP-activated protein kinase catalytic subunit alpha-1 (Q13131 whole entry): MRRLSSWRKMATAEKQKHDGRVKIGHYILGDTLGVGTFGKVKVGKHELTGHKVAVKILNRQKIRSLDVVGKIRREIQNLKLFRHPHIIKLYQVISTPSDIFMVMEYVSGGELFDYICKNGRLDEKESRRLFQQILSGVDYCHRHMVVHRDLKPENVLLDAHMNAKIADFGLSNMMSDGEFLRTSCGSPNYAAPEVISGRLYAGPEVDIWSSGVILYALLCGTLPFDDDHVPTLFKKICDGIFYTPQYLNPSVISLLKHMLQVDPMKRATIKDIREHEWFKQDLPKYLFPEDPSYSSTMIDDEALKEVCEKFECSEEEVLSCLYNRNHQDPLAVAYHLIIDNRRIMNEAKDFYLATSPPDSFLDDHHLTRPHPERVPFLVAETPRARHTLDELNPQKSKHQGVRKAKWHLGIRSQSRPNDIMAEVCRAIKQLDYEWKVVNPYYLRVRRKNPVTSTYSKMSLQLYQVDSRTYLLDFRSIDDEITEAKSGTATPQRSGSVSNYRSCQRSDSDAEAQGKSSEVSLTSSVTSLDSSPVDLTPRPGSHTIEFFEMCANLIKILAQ

With `NCCCn1cc(-c2cc(-c3cc4ccccc4s3)c3[nH]ncc3c2)c2nc(N)ncc21` the Ki [1] was 794 nM (active), the Ki [2] was 63.1 nM (active) and the Ki [3] was > 3980 nM (inactive). For the same compound, the Ki [4] was 20 nM (active), the Ki [5] was 2000 nM (active) and the Ki [6] was 12.6 nM (active). For the same compound, the Ki [7] was > 3980 nM (inactive), the Ki [8] was > 3980 nM (inactive) and the Ki [9] was > 1580 nM (inactive). The Ki [10] was 316 nM (active), the Ki [11] was 200 nM (active) and the Ki [12] was > 1580 nM (inactive). The Ki [13] was > 2000 nM (inactive), the Ki [14] was > 1260 nM (inactive) and the Ki [15] was 251 nM (active). The Ki [16] was > 5010 nM (inactive), the Ki [17] was 100 nM (active) and the Ki [18] was 200 nM (active). The Ki [19] was 3.16 nM (active), the Ki [20] was 1260 nM (active) and the Ki [21] was > 2000 nM (inactive). The Ki [22] was 251 nM (active), the Ki [23] was 3160 nM (active) and the Ki [24] was 100 nM (active). For the same compound, the Ki [25] was > 10000 nM (inactive), the Ki [26] was > 2510 nM (inactive) and the Ki [27] was > 1580 nM (inactive). The Ki [28] was > 3980 nM (inactive), the Ki [29] was > 3160 nM (inactive) and the Ki [30] was 126 nM (active). The Ki [31] was > 5010 nM (inactive) and the Ki [32] was > 3980 nM (inactive).
`CCCn1nc([N+](=O)[O-])c(C(C#N)c2nc3ccccc3s2)c(Cl)c1=O` (centres undefined) was tested, and the IC50 [33] was 24700 nM (active) and the EC50 [34] was 2170 nM (active).
